Source: patent publication US20100173910A1, “TRIAMINOPYRIMIDINE CYCLOBUTENEDIONE DERIVATIVES USED AS PHOSPHATASE CDC25 INHIBITORS” (IPDRN PHSTMS D.S.S., priority 2007, published 2010)

Legend:
[1] = tested on: DU 145 (human prostate carcinoma cells); assay: Anti-proliferative activity, DU 145 cells (WST1 colorimetric test); type: cell-based; conditions: DU-145, 96 h, 96 hours treatment, up to 10 μM, nested upper bounds, read-out: IC50 for proliferation of the DU 145 cell lines
Description: (§1) ii) Characterisation of Anti-Proliferative Activity:
(§2) By way of an example, the effect of treating two human cell lines MIA PaCa-2 and DU 145 with the compounds of the examples described hereinbefore will be studied. The cell lines DU 145 (human prostate carcinoma cells) and MIA PaCa-2 (human pancreatic carcinoma cells) were obtained from the American Tissue Culture Collection (Rockville, Md., USA). A 96-well plate was inoculated on day 0 with cells in 80 μl of Dulbecco's modified Eagle's medium (Gibco-Brl, Cergy-Pontoise, France) with 10% heat-inactivated foetal calf serum (Gibco-Brl, Cergy-Pontoise, France), 50,000 units/l of penicillin and 50 mg/l of streptomycin (Gibco-Brl, Cergy-Pontoise, France) and 2 mM of glutamine (Gibco-Brl, Cergy-Pontoise, France). The cells were treated on day 1 for 96 hours with increasing concentrations of each test compound up to 10 μM. At the end of this period, cell proliferation is quantified by means of a colorimetric test based on cleavage of the tetrazolium salt WST1 by the mitochondrial dehydrogenases in the viable cells, resulting in formation of formazan (Boehringer Mannheim, Meylan, France). These tests are performed in duplicate with 8 determinations per concentration tested. For each test compound, the values within the linear part of the sigmoid curve were subjected to linear regression analysis and used to estimate the IC50 inhibitory concentration. The products are solubilised in dimethylsulfoxide (DMSO) at a concentration of 10^−2 M and used in culture with a final DMSO concentration of 0.1%.

[2] = tested on: MIA PaCa-2 (human pancreatic carcinoma cells); assay: Anti-proliferative activity, MIA PaCa-2 cells (WST1 colorimetric test); type: cell-based; conditions: MIA PaCa-2, 96 h, 96 hours treatment, up to 10 μM, nested upper bounds, read-out: IC50 for proliferation of the MIA PaCa-2 cell lines
Description: as §1, §2

[3] = biological target: T1, purified recombinant CDC25C enzyme (MBP-CDC25C protein) (Homo sapiens, UniProt P30307); assay: Phosphatase activity of the purified recombinant CDC25C enzyme (OMFP dephosphorylation, fluorescence); type: biochemical; conditions: OMFP 500 μM, 4 hours at 30° C., three independent experiments; nested upper bounds; read-out: IC50 for the phosphatase activity of the purified recombinant CDC25-C enzyme
T1 construct: made in house
T1 sequence (P30307 1-473): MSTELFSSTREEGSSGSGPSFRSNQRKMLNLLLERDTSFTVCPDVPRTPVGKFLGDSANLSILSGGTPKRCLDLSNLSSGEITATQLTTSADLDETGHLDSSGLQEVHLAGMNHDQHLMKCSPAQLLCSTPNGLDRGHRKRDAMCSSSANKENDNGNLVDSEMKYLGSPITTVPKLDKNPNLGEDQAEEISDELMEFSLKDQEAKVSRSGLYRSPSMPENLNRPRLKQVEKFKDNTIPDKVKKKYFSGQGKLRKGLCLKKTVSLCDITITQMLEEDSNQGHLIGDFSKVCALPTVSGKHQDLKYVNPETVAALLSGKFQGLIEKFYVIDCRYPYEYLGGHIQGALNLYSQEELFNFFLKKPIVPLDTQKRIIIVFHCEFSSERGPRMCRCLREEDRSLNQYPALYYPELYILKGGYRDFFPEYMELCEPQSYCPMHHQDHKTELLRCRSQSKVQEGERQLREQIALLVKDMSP
Description: i) Determination of the Phosphatase Activity of the Purified Recombinant CDC25C Enzyme:
The phosphatase activity of the MBP-CDC25C protein is evaluated through its dephosphorylation of 3-O-methylfluorescein-phosphate (OMFP) to form 3-O-methylfluorescein (OMF), determining the fluorescence of the reaction product at 475 nm. This assay can be used to identify inhibitors of the recombinant CDC25 enzyme. The preparation of the MBP-CDC25C fusion protein is described in the PCT patent application published under the number WO 01/44467.
The reaction is performed in 384-well plates in a final volume of 50 μl. The MBP-CDC25C protein (prepared as described hereinabove) is stored in the following elution buffer: 20 mM Tris-HCl pH 7.4; 250 mM NaCl; 1 mM EDTA; 1 mM dithiothreitol (DTT); 10 mM maltose. It is diluted to a concentration of 60 μM in the following reaction buffer: 50 mM Tris-HCl pH 8.2; 50 mM NaCl; 1 mM DTT; 20% glycerol. The background noise is determined using with the buffer without adding the enzyme. The products are tested at decreasing concentrations from 40 μM. The reaction is initiated by the addition of OMFP solution to a final concentration of 500 μM (prepared immediately before use from a 12.5 mM stock solution in 100% DMSO (Sigma #M2629)). After 4 hours at 30° C. in a disposable 384-well plate, the fluorescence measured at OD 475 nm is read on a Victor^2 plate reader (EGG-Wallac). The concentration that produces 50% inhibition of the enzyme reaction is calculated from three independent experiments. Only the values that fall within the linear part of the sigmoid curve are used for the linear regression analysis.

Compound	IC50 [1]	melting point	IC50 [2]	IC50 [3]
O=c1c(NCCNc2cc(N3CCCC3)nc(N3CCCC3)n2)c(Nc2ccc(F)cc2)c1=O [Example 31, 3-({2-[(2,6-dipyrrolidin-1-ylpyrimidin-4-yl)amino]ethyl}amino)-4-[(4-fluorophenyl)amino]cyclobut-3-ene-1,2-dione]	≤ 10 µM	241 to 243 °C	≤ 10 µM	≤ 1 µM
N#Cc1ccc(Nc2c(NCCNc3cc(N4CCCC4)nc(N4CCCC4)n3)c(=O)c2=O)cc1 [Example 33, 3-({2-[(2,6-dipyrrolidin-1-ylpyrimidin-4-yl)amino]ethyl}amino)-4-[(4-cyanophenyl)amino]cyclobut-3-ene-1,2-dione]	≤ 10 µM	> 250 °C	≤ 10 µM	≤ 1 µM
